{"source": "ChEMBL document CHEMBL1641460", "about": "“Potent and selective thiophene urea-templated inhibitors of S6K” (Bioorg Med Chem Lett, 2011)", "key": {"[1]": {"biological_target": "cAMP-dependent protein kinase catalytic subunit alpha (Homo sapiens) (UniProt P17612)", "assay": "Inhibition of PRKACA at 10 uM"}, "[2]": {"biological_target": "Tyrosine-protein kinase JAK3 (Homo sapiens) (UniProt P52333)", "assay": "Inhibition of JAK3 at 1 uM"}, "[3]": {"biological_target": "Tyrosine-protein kinase Lck (Homo sapiens) (UniProt P06239)", "assay": "Inhibition of LCK at 1 uM"}, "[4]": {"biological_target": "Dual specificity protein kinase CLK1 (Homo sapiens) (UniProt P49759)", "assay": "Inhibition of CLK1 at 1 uM"}, "[5]": {"biological_target": "Vascular endothelial growth factor receptor 2 (Homo sapiens) (UniProt P35968)", "assay": "Inhibition of KDR at 1 uM"}, "[6]": {"biological_target": "Ribosomal protein S6 kinase beta-1 (Homo sapiens, UniProt P23443)", "assay": "Inhibition of S6K1"}, "[7]": {"biological_target": "Hepatocyte growth factor receptor (Homo sapiens) (UniProt P08581)", "sequence (P08581 whole entry)": "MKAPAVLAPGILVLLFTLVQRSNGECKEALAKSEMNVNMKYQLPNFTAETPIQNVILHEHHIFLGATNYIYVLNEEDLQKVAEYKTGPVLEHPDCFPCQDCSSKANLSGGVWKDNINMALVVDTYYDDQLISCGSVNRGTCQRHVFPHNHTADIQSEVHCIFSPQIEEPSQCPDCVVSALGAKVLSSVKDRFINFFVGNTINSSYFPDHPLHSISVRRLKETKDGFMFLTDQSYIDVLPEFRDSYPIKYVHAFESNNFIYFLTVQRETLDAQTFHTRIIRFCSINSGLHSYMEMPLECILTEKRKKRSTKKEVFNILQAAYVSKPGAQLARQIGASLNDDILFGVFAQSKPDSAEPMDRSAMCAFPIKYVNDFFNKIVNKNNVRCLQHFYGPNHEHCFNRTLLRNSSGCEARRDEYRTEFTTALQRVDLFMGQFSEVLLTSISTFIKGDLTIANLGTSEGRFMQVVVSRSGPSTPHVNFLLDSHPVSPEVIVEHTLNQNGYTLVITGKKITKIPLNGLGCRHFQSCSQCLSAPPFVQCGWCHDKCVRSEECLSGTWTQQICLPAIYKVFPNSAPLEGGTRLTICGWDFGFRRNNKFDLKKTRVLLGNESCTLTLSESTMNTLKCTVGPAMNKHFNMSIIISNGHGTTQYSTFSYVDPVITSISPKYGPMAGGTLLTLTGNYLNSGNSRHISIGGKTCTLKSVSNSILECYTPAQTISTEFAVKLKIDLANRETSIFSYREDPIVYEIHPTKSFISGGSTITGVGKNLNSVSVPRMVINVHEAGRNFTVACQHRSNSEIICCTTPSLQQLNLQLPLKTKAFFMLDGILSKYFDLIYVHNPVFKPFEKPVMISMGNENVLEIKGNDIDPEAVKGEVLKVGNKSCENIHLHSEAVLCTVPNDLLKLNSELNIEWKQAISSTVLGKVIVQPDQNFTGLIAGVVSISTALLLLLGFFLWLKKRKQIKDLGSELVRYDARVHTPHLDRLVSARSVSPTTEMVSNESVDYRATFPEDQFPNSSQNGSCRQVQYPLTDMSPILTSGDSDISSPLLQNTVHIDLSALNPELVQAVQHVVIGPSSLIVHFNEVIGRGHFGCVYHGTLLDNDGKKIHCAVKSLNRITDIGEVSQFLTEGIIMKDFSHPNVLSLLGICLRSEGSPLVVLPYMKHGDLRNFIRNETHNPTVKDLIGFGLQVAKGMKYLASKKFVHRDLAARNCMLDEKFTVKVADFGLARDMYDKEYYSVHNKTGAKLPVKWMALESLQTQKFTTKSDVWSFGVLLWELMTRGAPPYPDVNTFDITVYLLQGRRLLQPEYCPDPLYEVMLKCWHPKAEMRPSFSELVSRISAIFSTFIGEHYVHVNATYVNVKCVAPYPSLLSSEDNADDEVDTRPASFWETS", "assay": "Inhibition of MET at 1 uM"}, "[8]": {"biological_target": "Serine/threonine-protein kinase Chk1 (Homo sapiens) (UniProt O14757)", "sequence (O14757 whole entry)": "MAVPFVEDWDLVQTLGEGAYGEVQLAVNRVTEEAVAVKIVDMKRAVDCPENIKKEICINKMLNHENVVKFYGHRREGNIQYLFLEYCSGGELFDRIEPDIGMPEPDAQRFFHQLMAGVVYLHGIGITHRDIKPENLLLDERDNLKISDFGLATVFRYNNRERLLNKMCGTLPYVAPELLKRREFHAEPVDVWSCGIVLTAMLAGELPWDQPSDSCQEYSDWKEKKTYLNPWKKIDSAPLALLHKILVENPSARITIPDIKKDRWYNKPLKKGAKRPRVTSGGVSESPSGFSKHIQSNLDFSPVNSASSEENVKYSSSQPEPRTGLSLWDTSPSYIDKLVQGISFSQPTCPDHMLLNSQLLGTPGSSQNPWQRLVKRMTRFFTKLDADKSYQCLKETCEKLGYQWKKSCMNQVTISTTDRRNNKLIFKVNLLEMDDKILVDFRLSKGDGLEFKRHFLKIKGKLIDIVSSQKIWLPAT", "assay": "Inhibition of CHEK1 at 10 uM"}, "[9]": {"biological_target": "Cyclin-dependent kinase 6 (Homo sapiens) (UniProt Q00534)", "sequence (Q00534 whole entry)": "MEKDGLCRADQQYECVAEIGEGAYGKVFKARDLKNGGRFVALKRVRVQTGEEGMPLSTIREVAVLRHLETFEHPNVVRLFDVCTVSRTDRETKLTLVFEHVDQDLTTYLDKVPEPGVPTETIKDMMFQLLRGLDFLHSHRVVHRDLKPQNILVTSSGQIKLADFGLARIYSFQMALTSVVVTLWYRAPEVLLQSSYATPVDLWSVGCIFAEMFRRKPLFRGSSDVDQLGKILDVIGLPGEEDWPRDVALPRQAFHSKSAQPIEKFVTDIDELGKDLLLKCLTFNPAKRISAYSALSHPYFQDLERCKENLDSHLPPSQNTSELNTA", "assay": "Inhibition of CDK6 at 1 uM"}, "[10]": {"biological_target": "Casein kinase I isoform delta (Homo sapiens) (UniProt P48730)", "assay": "Inhibition of CSNK1D at 10 uM"}, "[11]": {"biological_target": "Inhibitor of nuclear factor kappa-B kinase subunit epsilon (Homo sapiens) (UniProt Q14164)", "assay": "Inhibition of IKBKE at 1 uM"}, "[12]": {"biological_target": "Proto-oncogene tyrosine-protein kinase Src (Homo sapiens) (UniProt P12931)", "sequence (P12931 2-536 limits assumed)": "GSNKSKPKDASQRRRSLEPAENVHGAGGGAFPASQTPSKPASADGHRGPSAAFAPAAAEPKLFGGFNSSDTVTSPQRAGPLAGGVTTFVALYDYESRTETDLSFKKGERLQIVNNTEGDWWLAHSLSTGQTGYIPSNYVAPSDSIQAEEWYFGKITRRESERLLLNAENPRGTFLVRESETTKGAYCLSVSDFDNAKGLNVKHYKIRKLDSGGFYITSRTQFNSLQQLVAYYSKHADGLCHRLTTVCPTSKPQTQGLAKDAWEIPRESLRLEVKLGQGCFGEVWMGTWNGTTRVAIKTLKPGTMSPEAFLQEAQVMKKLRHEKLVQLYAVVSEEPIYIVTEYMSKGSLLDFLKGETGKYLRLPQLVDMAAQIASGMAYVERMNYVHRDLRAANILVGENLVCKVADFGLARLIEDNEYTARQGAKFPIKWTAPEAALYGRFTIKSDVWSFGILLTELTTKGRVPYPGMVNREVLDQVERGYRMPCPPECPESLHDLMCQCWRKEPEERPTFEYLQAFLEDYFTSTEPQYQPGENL", "assay": "Inhibition of SRC at 1 uM"}, "[13]": {"biological_target": "Tyrosine-protein kinase ABL1 (Homo sapiens) (UniProt P00519)", "assay": "Inhibition of ABL1 at 10 uM"}, "[14]": {"biological_target": "Rho-associated protein kinase 1 (Homo sapiens) (UniProt Q13464)", "assay": "Inhibition of ROCK1 at 10 uM"}, "[15]": {"biological_target": "Voltage-gated inwardly rectifying potassium channel KCNH2 (Homo sapiens, UniProt Q12809)", "assay": "Displacement of labeled dofetilide from human ERG"}, "[16]": {"biological_target": "Hepatocyte growth factor receptor (Homo sapiens) (UniProt P08581)", "assay": "Inhibition of MET at 10 uM"}, "[17]": {"biological_target": "Serine/threonine-protein kinase TAO3 (Homo sapiens) (UniProt Q9H2K8)", "assay": "Inhibition of TAOK3 at 1 uM"}, "[18]": {"biological_target": "3-phosphoinositide-dependent protein kinase 1 (Homo sapiens) (UniProt O15530)", "sequence (O15530 whole entry)": "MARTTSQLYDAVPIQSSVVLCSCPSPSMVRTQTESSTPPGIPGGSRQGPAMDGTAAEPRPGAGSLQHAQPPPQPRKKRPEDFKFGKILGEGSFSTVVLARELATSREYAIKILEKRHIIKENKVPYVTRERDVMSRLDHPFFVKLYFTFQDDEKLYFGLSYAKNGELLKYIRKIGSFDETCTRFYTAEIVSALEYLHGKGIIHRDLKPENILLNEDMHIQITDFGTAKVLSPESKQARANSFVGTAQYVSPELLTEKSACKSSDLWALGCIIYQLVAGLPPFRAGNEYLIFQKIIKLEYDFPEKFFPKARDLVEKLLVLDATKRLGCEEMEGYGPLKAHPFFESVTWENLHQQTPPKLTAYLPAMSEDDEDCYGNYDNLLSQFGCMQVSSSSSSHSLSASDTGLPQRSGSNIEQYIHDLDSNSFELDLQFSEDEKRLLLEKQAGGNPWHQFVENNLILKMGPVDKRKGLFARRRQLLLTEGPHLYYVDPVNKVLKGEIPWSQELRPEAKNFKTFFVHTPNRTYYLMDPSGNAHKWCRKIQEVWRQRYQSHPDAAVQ", "assay": "Inhibition of PDPK1 at 10 uM"}, "[19]": {"biological_target": "MAP kinase-activated protein kinase 2 (Homo sapiens) (UniProt P49137)", "assay": "Inhibition of MAPKAPK2 at 1 uM"}, "[20]": {"biological_target": "Proto-oncogene tyrosine-protein kinase Src (Homo sapiens) (UniProt P12931)", "assay": "Inhibition of SRC at 10 uM"}, "[21]": {"biological_target": "Glycogen synthase kinase-3 beta (Homo sapiens) (UniProt P49841)", "assay": "Inhibition of GSK3b at 10 uM"}, "[22]": {"biological_target": "Ephrin type-A receptor 2 (Homo sapiens) (UniProt P29317)", "sequence (P29317 whole entry)": "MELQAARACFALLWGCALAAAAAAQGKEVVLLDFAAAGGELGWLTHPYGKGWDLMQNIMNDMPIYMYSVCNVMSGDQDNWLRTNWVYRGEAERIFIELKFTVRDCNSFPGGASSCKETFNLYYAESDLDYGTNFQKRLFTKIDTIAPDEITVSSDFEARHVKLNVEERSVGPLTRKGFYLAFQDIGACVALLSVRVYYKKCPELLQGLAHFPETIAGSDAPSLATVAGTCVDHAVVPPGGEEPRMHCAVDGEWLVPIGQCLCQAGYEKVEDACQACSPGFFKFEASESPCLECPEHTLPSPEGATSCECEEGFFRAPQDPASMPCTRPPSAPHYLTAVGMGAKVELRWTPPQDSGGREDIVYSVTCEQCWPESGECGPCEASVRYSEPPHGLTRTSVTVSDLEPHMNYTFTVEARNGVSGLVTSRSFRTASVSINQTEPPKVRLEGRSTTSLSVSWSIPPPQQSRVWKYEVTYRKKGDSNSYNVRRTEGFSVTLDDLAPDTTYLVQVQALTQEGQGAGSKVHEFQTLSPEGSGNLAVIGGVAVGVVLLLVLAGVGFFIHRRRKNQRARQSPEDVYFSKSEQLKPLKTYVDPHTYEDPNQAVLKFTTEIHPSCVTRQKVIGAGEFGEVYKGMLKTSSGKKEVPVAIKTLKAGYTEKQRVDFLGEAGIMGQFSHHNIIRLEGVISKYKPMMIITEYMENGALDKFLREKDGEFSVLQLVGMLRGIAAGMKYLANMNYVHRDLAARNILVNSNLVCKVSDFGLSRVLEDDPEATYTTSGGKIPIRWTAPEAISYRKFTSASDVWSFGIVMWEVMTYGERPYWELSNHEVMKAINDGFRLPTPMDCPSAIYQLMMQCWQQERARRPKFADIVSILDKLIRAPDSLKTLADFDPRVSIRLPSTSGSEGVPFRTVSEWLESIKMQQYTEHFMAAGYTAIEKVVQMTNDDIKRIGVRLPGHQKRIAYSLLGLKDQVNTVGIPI", "assay": "Inhibition of EPHA2 at 10 uM"}, "[23]": {"biological_target": "RAC-alpha serine/threonine-protein kinase (Homo sapiens) (UniProt P31749)", "assay": "Inhibition of AKT1 at 1 uM"}, "[24]": {"biological_target": "Mitogen-activated protein kinase 1 (Homo sapiens) (UniProt P28482)", "sequence (P28482 whole entry)": "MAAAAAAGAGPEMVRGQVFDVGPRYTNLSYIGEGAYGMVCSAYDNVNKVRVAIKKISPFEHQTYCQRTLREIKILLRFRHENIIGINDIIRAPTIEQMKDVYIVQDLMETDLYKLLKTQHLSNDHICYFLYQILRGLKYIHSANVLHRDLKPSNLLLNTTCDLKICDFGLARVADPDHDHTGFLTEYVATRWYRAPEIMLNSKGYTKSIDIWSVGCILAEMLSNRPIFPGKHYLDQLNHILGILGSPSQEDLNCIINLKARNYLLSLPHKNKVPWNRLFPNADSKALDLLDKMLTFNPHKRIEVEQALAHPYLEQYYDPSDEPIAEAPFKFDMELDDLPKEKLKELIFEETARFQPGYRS", "assay": "Inhibition of MAPK1 at 10 uM"}, "[25]": {"biological_target": "Calcium/calmodulin-dependent protein kinase type 1 (Homo sapiens) (UniProt Q14012)", "sequence (Q14012 whole entry, looked up)": "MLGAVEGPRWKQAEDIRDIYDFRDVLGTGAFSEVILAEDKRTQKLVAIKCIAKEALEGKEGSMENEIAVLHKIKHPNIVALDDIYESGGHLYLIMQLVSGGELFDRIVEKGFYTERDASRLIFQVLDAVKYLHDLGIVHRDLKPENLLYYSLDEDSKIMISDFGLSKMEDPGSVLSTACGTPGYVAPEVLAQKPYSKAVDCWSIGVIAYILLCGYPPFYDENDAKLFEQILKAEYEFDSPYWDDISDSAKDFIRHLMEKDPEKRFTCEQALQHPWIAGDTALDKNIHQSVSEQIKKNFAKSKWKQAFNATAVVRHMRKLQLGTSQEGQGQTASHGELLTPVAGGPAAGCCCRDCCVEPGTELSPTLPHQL", "assay": "Inhibition of CAMK1 at 10 uM"}, "[26]": {"biological_target": "CYP3A4 (Homo sapiens, UniProt P08684)", "assay": "Inhibition of CYP3A4 at 3 uM by LC/MS/MS analysis", "assay_type": "ADME"}, "[27]": {"biological_target": "T1, CYP1A2 (Homo sapiens, UniProt P05177)", "T1 sequence (P05177 whole entry)": "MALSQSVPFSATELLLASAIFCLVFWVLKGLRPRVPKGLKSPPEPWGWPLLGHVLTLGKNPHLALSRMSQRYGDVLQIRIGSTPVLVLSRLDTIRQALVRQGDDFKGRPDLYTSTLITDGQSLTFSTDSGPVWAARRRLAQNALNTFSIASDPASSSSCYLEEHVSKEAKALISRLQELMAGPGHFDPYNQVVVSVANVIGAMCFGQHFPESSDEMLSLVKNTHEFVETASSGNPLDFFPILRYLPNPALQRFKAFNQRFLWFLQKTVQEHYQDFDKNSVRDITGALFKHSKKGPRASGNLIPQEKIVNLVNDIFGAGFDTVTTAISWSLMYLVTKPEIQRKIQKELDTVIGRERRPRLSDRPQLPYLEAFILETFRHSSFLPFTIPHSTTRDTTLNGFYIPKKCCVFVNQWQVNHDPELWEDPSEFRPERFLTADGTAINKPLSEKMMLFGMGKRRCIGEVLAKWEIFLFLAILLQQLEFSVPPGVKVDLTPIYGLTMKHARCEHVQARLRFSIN", "assay": "Inhibition of CYP1A2 at 3 uM by LC/MS/MS analysis", "assay_type": "ADME"}, "[28]": {"biological_target": "Mitogen-activated protein kinase kinase kinase 9 (Homo sapiens) (UniProt P80192)", "assay": "Inhibition of MAP3K9 at 10 uM"}, "[29]": {"biological_target": "Protein kinase C beta type (Homo sapiens) (UniProt P05771)", "assay": "Inhibition of PRKCB at 1 uM"}, "[30]": {"biological_target": "Ephrin type-A receptor 2 (Homo sapiens) (UniProt P29317)", "assay": "Inhibition of EPHA2 at 1 uM"}, "[31]": {"biological_target": "Insulin receptor (Homo sapiens) (UniProt P06213)", "assay": "Inhibition of INSR at 10 uM"}, "[32]": {"biological_target": "3-phosphoinositide-dependent protein kinase 1 (Homo sapiens) (UniProt O15530)", "assay": "Inhibition of PDPK1 at 1 uM"}, "[33]": {"biological_target": "Mitogen-activated protein kinase 1 (Homo sapiens) (UniProt P28482)", "assay": "Inhibition of MAPK1 at 1 uM"}, "[34]": {"biological_target": "Cyclin-dependent kinase 6 (Homo sapiens) (UniProt Q00534)", "assay": "Inhibition of CDK6 at 10 uM"}, "[35]": {"biological_target": "Serine/threonine-protein kinase Chk1 (Homo sapiens) (UniProt O14757)", "assay": "Inhibition of CHEK1 at 1 uM"}, "[36]": {"biological_target": "Serine/threonine-protein kinase Chk2 (Homo sapiens) (UniProt O96017)", "assay": "Inhibition of CHEK2 at 1 uM"}, "[37]": {"biological_target": "Serine/threonine-protein kinase MARK1 (Homo sapiens) (UniProt Q9P0L2)", "assay": "Inhibition of MARK1 at 10 uM"}, "[38]": {"biological_target": "Fibroblast growth factor receptor 1 (Homo sapiens) (UniProt P11362)", "assay": "Inhibition of FGFR1 at 10 uM"}}, "data": [{"smiles": "CC(C)(C)c1cc(C(=O)O)c(NC(=O)Nc2ccc3[nH]ncc3c2)s1", "values": [{"measurement": "inhibition", "setting": "[1]", "result": 10, "unit": "%"}, {"measurement": "inhibition", "setting": "[2]", "result": 40, "unit": "%"}, {"measurement": "inhibition", "setting": "[3]", "result": 0, "unit": "%"}, {"measurement": "inhibition", "setting": "[4]", "result": 10, "unit": "%"}, {"measurement": "inhibition", "setting": "[5]", "result": 0, "unit": "%"}, {"measurement": "IC50", "setting": "[6]", "result": 52, "unit": "nM"}, {"measurement": "inhibition", "setting": "[7]", "result": 0, "unit": "%"}, {"measurement": "inhibition", "setting": "[8]", "result": 10, "unit": "%"}, {"measurement": "inhibition", "setting": "[9]", "result": 0, "unit": "%"}, {"measurement": "inhibition", "setting": "[10]", "result": 20, "unit": "%"}, {"measurement": "inhibition", "setting": "[11]", "result": 10, "unit": "%"}, {"measurement": "inhibition", "setting": "[12]", "result": 0, "unit": "%"}, {"measurement": "inhibition", "setting": "[13]", "result": 0, "unit": "%"}, {"measurement": "inhibition", "setting": "[14]", "result": 10, "unit": "%"}, {"measurement": "inhibition (INH)", "setting": "[15]", "result": 0, "unit": "%"}, {"measurement": "inhibition", "setting": "[16]", "result": 0, "unit": "%"}, {"measurement": "inhibition", "setting": "[17]", "result": 10, "unit": "%"}, {"measurement": "inhibition", "setting": "[18]", "result": 20, "unit": "%"}, {"measurement": "inhibition", "setting": "[19]", "result": 10, "unit": "%"}, {"measurement": "inhibition", "setting": "[20]", "result": 0, "unit": "%"}, {"measurement": "inhibition", "setting": "[21]", "result": 10, "unit": "%"}, {"measurement": "inhibition", "setting": "[22]", "result": 10, "unit": "%"}, {"measurement": "inhibition", "setting": "[23]", "result": 0, "unit": "%"}, {"measurement": "inhibition", "setting": "[24]", "result": 10, "unit": "%"}, {"measurement": "inhibition", "setting": "[25]", "result": 10, "unit": "%"}, {"measurement": "inhibition at 3 µM", "setting": "[26]", "result": 0, "unit": "%"}, {"measurement": "inhibition at 3 µM", "setting": "[27]", "result": 6, "unit": "%"}, {"measurement": "inhibition", "setting": "[28]", "result": 20, "unit": "%"}, {"measurement": "inhibition", "setting": "[29]", "result": 10, "unit": "%"}, {"measurement": "inhibition", "setting": "[30]", "result": 10, "unit": "%"}, {"measurement": "inhibition", "setting": "[31]", "result": 0, "unit": "%"}, {"measurement": "inhibition", "setting": "[32]", "result": 20, "unit": "%"}, {"measurement": "inhibition", "setting": "[33]", "result": 10, "unit": "%"}, {"measurement": "inhibition", "setting": "[34]", "result": 0, "unit": "%"}, {"measurement": "inhibition", "setting": "[35]", "result": 10, "unit": "%"}, {"measurement": "inhibition", "setting": "[36]", "result": 20, "unit": "%"}, {"measurement": "inhibition", "setting": "[37]", "result": 20, "unit": "%"}, {"measurement": "inhibition", "setting": "[38]", "result": 0, "unit": "%"}]}]}
